# Data published in ChEMBL document CHEMBL1141452, “Advances in development of dopaminergic aporphinoids” (J Med Chem, 2007).
# Key:
# [1] = target: Tyrosine 3-monooxygenase (Homo sapiens, UniProt P07101); assay: Inhibition of tyrosine hydroxylase
# [2] = Inhibition of rat midbrain dopaminergic neuron firing; format: functional; conditions: read-out: ID50 (the source's name)
# [3] = target: Tyrosine 3-monooxygenase (Rattus norvegicus) (UniProt P04177); assay: Inhibition of tyrosine hydroxylase
# [4] = system: Cerebrum; assay: Inhibition of lipid peroxidation in rat cerebrum; format: functional, tissue-based
# [5] = target: D(1A) dopamine receptor (Rattus norvegicus, UniProt P18901); assay: Displacement of [3H]SCH-23390 from rat dopamine D1 receptor
# Chain of D(1A) dopamine receptor (P18901 whole entry): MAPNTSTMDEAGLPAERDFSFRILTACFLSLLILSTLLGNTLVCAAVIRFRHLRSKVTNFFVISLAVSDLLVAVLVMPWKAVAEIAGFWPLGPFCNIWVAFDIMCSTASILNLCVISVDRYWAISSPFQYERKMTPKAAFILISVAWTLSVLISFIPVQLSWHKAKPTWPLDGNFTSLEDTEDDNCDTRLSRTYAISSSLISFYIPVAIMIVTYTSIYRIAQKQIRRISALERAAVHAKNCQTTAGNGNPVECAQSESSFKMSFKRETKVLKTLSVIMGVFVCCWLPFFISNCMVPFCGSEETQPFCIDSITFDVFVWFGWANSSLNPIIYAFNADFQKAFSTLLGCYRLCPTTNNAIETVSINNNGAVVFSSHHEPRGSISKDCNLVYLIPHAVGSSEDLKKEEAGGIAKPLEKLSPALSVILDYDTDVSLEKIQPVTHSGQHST
# [6] = target: D(2) dopamine receptor (Rattus norvegicus, UniProt P61169); assay: Displacement of [3H]raclopride from rat dopamine D2 receptor
# Chain of D(2) dopamine receptor (P61169 whole entry): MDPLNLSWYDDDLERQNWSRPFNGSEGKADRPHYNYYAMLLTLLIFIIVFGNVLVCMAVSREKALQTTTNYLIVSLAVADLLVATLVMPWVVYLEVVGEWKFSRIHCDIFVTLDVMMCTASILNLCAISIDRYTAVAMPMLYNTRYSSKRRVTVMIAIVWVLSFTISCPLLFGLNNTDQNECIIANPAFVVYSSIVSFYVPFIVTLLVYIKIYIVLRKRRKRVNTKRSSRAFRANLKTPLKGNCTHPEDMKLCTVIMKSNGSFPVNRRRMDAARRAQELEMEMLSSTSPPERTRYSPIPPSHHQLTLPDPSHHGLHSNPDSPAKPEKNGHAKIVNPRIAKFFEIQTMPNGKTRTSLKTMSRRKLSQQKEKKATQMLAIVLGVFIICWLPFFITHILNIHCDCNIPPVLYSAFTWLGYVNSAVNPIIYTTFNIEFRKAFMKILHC
# [7] = target: Sodium-dependent dopamine transporter (Rattus norvegicus, UniProt P23977); assay: Displacement of [3H]DA from rat DAT
# Chain of Sodium-dependent dopamine transporter (P23977 whole entry): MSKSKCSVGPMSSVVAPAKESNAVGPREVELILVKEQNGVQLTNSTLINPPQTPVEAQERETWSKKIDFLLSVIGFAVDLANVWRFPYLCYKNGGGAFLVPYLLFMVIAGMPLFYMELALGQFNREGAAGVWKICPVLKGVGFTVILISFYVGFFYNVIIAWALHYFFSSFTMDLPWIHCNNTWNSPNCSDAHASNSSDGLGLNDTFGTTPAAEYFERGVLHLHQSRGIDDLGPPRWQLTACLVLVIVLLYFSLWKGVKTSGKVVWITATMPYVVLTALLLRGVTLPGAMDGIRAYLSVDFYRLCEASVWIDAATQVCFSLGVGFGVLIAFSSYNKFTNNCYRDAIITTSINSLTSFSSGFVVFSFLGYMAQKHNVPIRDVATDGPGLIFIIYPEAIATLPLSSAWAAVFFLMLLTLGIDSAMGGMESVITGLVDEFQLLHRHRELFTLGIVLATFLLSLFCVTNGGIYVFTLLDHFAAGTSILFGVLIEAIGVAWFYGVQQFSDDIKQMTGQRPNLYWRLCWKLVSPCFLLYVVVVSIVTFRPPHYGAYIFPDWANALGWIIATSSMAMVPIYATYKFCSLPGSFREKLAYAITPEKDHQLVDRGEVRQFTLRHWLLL
# [8] = system: PC-12; assay: Reduction of dopamine level in catecholamine-inducing rat PC12 cells; format: functional, cell-based
# [9] = system: Rattus norvegicus; assay: Displacement of [3H]SCH-23390 from rat dopamine D1 receptor at 40 mg/kg, ip; format: functional; conditions: route intraperitoneal
# [10] = system: Rattus norvegicus; assay: Displacement of [3H]raclopride from rat dopamine D2 receptor at 40 mg/kg, ip; format: functional; conditions: route intraperitoneal
# [11] = system: Rattus norvegicus; assay: Inhibition of apomorphine-induced yawning in rat at 40 mg/kg, ip; format: functional; parameters: scale not given: the % may be the effect or the level left; conditions: route intraperitoneal
# [12] = system: Rattus norvegicus; assay: Inhibition of apomorphine-induced penile erection in rat at 40 mg/kg, ip; format: functional; parameters: scale not given: the % may be the effect or the level left; conditions: route intraperitoneal
# [13] = target: 5-hydroxytryptamine receptor 7 (Homo sapiens, UniProt P34969); assay: Binding affinity at 5HT7 receptor
# Chain of 5-hydroxytryptamine receptor 7 (P34969 whole entry): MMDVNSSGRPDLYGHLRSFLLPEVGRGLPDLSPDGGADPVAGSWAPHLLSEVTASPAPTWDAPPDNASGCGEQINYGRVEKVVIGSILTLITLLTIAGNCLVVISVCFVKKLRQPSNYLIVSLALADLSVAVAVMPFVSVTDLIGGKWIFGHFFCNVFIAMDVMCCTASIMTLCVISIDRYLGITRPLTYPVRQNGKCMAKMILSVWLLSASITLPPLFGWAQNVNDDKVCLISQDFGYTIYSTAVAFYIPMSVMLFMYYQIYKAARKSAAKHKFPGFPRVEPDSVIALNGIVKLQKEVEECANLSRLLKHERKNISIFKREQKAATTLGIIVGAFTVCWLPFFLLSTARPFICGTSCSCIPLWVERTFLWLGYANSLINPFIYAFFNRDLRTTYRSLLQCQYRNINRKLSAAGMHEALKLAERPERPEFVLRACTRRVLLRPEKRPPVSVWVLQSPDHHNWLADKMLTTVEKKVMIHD
# [14] = target: T1, 5-hydroxytryptamine receptor 1A (Rattus norvegicus, UniProt P19327); assay: Displacement of [3H]8-OH-DPAT from rat 5HT1A receptor
# T1 sequence (P19327 whole entry): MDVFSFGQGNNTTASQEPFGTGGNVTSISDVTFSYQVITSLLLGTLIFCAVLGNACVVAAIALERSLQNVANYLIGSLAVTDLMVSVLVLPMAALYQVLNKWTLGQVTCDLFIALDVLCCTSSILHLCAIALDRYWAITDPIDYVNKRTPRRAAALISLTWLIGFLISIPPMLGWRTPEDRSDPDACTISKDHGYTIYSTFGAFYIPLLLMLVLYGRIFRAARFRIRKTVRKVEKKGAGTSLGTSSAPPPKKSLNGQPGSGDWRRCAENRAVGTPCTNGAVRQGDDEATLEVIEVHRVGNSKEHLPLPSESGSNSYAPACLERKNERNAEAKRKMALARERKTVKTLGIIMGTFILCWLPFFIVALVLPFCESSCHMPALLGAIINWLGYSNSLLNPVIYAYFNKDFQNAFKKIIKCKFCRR
# [15] = target: 5-hydroxytryptamine receptor 7 (Rattus norvegicus) (UniProt P32305); assay: Displacement of [3H]5-HT from rat 5-HT7 receptor
# Chain of 5-hydroxytryptamine receptor 7 (Rattus norvegicus) (P32305 whole entry, looked up): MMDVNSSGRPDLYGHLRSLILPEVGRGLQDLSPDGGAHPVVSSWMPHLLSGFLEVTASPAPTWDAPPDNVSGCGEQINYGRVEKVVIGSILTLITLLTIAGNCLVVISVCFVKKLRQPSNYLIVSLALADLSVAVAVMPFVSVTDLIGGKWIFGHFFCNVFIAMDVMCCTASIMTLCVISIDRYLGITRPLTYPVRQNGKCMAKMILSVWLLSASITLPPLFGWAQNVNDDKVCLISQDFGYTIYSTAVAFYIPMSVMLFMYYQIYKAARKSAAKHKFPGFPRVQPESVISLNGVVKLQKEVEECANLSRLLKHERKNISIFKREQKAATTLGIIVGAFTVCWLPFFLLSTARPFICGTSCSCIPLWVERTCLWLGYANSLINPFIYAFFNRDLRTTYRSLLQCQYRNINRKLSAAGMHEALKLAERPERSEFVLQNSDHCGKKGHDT
# Chain of Tyrosine 3-monooxygenase (Rattus norvegicus) (P04177 whole entry, looked up): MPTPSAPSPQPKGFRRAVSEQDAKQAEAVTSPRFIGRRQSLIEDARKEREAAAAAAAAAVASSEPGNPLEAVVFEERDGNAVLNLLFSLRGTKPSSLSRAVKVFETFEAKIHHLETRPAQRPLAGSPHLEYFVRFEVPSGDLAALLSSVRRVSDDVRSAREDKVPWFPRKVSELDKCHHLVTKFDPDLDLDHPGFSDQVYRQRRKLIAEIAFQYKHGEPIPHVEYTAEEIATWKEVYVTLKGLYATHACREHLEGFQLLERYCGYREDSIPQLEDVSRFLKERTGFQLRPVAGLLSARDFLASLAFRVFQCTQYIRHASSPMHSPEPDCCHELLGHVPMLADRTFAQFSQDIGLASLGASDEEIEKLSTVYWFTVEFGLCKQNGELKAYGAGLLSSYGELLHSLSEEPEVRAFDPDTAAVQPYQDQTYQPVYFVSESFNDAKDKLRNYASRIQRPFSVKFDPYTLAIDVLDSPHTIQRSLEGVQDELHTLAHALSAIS
# Chain of Tyrosine 3-monooxygenase (P07101 whole entry): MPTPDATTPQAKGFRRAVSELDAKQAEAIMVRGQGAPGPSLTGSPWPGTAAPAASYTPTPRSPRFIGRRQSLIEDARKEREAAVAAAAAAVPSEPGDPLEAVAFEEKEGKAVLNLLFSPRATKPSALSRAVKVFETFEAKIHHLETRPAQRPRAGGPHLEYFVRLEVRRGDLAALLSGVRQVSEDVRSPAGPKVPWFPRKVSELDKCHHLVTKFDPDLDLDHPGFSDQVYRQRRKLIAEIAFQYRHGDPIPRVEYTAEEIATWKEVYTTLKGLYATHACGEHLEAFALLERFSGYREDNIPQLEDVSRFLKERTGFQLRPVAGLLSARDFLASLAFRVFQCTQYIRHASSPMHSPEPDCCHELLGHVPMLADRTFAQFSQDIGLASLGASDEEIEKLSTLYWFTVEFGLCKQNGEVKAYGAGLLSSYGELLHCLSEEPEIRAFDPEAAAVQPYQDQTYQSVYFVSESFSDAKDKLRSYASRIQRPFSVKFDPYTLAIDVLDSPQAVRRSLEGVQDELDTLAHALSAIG
structure (smiles),measurement,setting,value
CCCN1CCc2cccc3c2[C@@H]1Cc1cccc(O)c1-3,IC50,[1],87000 nM
CCCN1CCc2cccc3c2[C@H]1Cc1ccc(O)c(O)c1-3 [R-N-PROPYLNORAPOMORPHINE],ED50,[2],0.002 µmol/kg
same,IC50,[3],300 nM
CN1CCc2cc3c(c4c2C1Cc1cccc(O)c1-4)OCO3 (stereo unspecified) [PUKATEINE],IC50,[4],15000 nM
same,IC50,[5],400 nM
same,IC50,[6],600 nM
same,IC50,[7],46000 nM
COc1ccc2c(c1O)-c1c3c(cc4c1[C@H](C2)N(C)CC4)OCO3 [(S)-BULBOCAPNINE],IC50,[8],27000 nM
COc1cc2c(cc1OC)-c1c(OC)c(OC)cc3c1[C@H](C2)N(C)CC3 [GLAUCINE],Activity,[9],50%
same,Activity,[10],50%
same,Activity,[11],50%
same,Activity,[12],50%
same,Ki,[5],2900 nM
same,Ki,[6],2800 nM
COc1cc2c(cc1O)C[C@H]1c3c(cc(O)c(OC)c3-2)CCN1C [BOLDINE],Activity,[9],25%
same,Activity,[11],50%
same,Activity,[12],50%
CN1CCc2ccc3[nH]c(=O)c4cccc5c4c3c2[C@H]1C5,Ki,[13],55 nM
same,Ki,[6],55 nM
same,Ki,[14],180 nM
same,Ki,[15],55 nM
CN1CCc2cccc3c2[C@@H]1Cc1ccc(O)c(O)c1-3 [(S)APOMORPHINE],ED50,[2],8.4 µmol/kg
CCCN1CCc2cccc3c2[C@H]1Cc1cccc(O)c1-3,ED50,[2],0.0047 µmol/kg
same,IC50,[1],42000 nM
CCCN1CCc2cccc3c2[C@@H]1Cc1ccc(O)c(O)c1-3,ED50,[2],1.6 µmol/kg
same,IC50,[3],1000 nM
